# Assay results as given in US9351974B2, “Substituted pteridinones for the treatment of cancer” (OSI Pharmaceuticals, LLC, priority 2011, dated 2016).
# Target: T1, His-tagged full-length RSK2 (RPS6KA3) (Homo sapiens, UniProt P51812)
# T1 construct: His-tagged full-length RSK2 (RPS6KA3, Invitrogen PV3323); His; purchased Invitrogen PV3323
# Assay: RSK2 Omnia Assay for compound IC50 determination
# Type: biochemical
# Settings: ATP 15 μM, n=2, read-out: Mean RSK2 Biochem IC50
# Description: RSK1 & RSK2 Omnia Assay Protocol for Compound IC50 Determination
# The Omnia Assay (Invitrogen) has been optimized for His-tagged full length RSK1 (RPS6KA1, Millipore 14-509) and for His-tagged full-length RSK2 (RPS6KA3, Invitrogen PV3323). In this assay system, Omnia ST Peptide 6 (Invitrogen KNZ1061) functions as a substrate for RSK1 or RSK2. Phosphorylation of this SOX-containing peptide results in an increase in fluorescence at 485 nm upon excitation at 360 nm.
# Assays are carried out in 384-well OptiPlates (Perkin Elmer 6007290) in a total volume of 20 μL containing RSK1 ([…]) or RSK2 ([…]), Omnia ST Peptide 6 (5 μM), ATP (15 μM, Km=16.3 μM), and test compound (variable) in RSK assay buffer (50 mM HEPES, pH 7.5, 10 mM MgCl2, 0.01% Tween-20, 1% glycerol, 1 mM DTT, 1 mM EGTA, 0.01% BSA) with 1% DMSO.
# IC50s for test compounds are typically determined using an 11-point three-fold serial dilution with a final assay concentration ranging either from 170 μM to […] or from 17 μM to […]. All compound concentrations are assayed in duplicate. Initial compound dilutions are prepared at 100× concentration in 100% DMSO from a 10 mM stock solution. Compounds are further diluted 1:25 in assay buffer resulting in a 4× concentrated solution.
# To run the assay 5 μL of the above 4× concentrated compound solution (or 4% DMSO for positive controls) is added to the assay plate followed by 5 μL of a solution containing peptide (20 μM) and ATP (60 μM) in assay buffer. The reaction is initiated by the addition of 10 μL of RSK1 ([…]) or RSK2 ([…]) in assay buffer, or assay buffer alone for negative controls. The increase in fluorescence due to peptide phosphorylation is monitored continuously as a function of time using a Spectramax M5 plate reader (Molecular Devices) equipped with SoftMax Pro software.
# The slopes from the linear portion of progress curves are used to determine IC50 values by non-linear curve-fitting to a four-parameter equation using GraphPad Prism (GraphPad Software, Inc.) or XLFit (IDBS). IC50's are determined in duplicate (n=2) and Ki values are calculated from IC50 values using the Cheng-Prusoff equation assuming a competitive mode of inhibition.
# T1 sequence (P51812 whole entry): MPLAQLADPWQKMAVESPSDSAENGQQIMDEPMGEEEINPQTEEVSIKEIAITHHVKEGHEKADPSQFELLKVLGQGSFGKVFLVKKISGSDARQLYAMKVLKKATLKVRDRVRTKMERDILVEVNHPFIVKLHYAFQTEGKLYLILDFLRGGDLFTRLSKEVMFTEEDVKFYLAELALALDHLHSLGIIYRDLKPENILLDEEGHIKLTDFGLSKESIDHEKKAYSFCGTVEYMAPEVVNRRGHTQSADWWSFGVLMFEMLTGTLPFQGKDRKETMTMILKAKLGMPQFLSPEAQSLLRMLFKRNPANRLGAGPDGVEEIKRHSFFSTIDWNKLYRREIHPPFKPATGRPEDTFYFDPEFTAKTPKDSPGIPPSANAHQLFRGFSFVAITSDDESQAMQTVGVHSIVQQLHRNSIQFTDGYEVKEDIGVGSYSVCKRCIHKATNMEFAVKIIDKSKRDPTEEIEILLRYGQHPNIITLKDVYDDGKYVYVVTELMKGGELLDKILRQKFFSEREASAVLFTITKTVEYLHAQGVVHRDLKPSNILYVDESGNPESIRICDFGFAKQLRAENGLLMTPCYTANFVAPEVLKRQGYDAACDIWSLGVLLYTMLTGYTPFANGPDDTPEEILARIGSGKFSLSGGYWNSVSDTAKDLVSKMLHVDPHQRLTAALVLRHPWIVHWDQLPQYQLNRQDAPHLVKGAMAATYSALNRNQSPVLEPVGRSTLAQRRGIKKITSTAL
row,Structure (SMILES),IC50
1,"COC(=O)c1cc(N2C(=O)[C@@H](C)N(C3CCCCC3)c3nc(Nc4ccc5[nH]ncc5c4)ncc32)cs1 [compound 177, methyl 4-[(7R)-8-cyclohexyl-2-(1H-indazol-5-ylamino)-7-methyl-6-oxo-7,8-dihydropteridin-5(6H)-yl]thiophene-2-carboxylate]",≤ 100 nM
2,"CO[C@H]1CC[C@@H](N2c3nc(Nc4ccc5[nH]c(=O)oc5c4)ncc3N(c3cccc(C#N)c3)C(=O)[C@H]2C)CC1 [compound 228, 3-[(7R)-8-(cis-4-methoxycyclohexyl)-7-methyl-6-oxo-2-[(2-oxo-2,3-dihydro-1,3-benzoxazol-6-yl)amino]-7,8-dihydropteridin-5(6H)-yl]benzonitrile]",≤ 100 nM
3,"CSc1ccc(N2C(=O)[C@@H](C)N(C3CCCCC3)c3nc(Nc4ccc5[nH]ncc5c4)ncc32)cn1 [compound 98, (7R)-8-cyclohexyl-2-(1H-indazol-5-ylamino)-7-methyl-5-[6-(methylsulfanyl)pyridin-3-yl]-7,8-dihydropteridin-6(5H)-one]",≤ 100 nM
4,"COc1ccc(N2C(=O)[C@@H](C)N([C@H]3CC[C@H](C)CC3)c3nc(Nc4ccc5[nH]c(=O)oc5c4)ncc32)cc1C#N [compound 244, 2-methoxy-5-[(7R)-7-methyl-8-(trans-4-methylcyclohexyl)-6-oxo-2-[(2-oxo-2,3-dihydro-1,3-benzoxazol-6-yl)amino]-7,8-dihydropteridin-5(6H)-yl]benzonitrile]",≤ 100 nM
5,"C[C@@H]1C(=O)N(c2cccc(S(C)(=O)=O)c2)c2cnc(Nc3ccc4[nH]ncc4c3)nc2N1C1CCCCC1 [Example 43, (7R)-8-cyclohexyl-2-(1H-indazol-5-ylamino)-7-methyl-5-[3-(methylsulfonyl)phenyl]-7,8-dihydropteridin-6(5H)-one]",≤ 100 nM
6,"C[C@@H]1C(=O)N(c2cccc(C#N)c2)c2cnc(Nc3ccc4c(=O)[nH]oc4c3)nc2N1C1CCCCC1 [compound 166, 3-[(7R)-8-cyclohexyl-7-methyl-6-oxo-2-[(3-oxo-2,3-dihydro-1,2-benzoxazol-6-yl)amino]-7,8-dihydropteridin-5(6H)-yl]benzonitrile]",≤ 100 nM
7,"C[C@@H]1C(=O)N(c2cccc(C#N)c2)c2cnc(Nc3cc(F)c(O)c(F)c3)nc2N1C1CCCCC1 [compound 158, 3-[(7R)-8-cyclohexyl-2-[(3,5-difluoro-4-hydroxyphenyl)amino]-7-methyl-6-oxo-7,8-dihydropteridin-5(6H)-yl]benzonitrile]",≤ 100 nM
8,"C[C@@H]1C(=O)N(c2ccc(N(C)C)cc2)c2cnc(Nc3ccc4[nH]ncc4c3)nc2N1C1CCCCC1 [Example 41, (7R)-8-cyclohexyl-5-[4-(dimethylamino)phenyl]-2-(1H-indazol-5-ylamino)-7-methyl-7,8-dihydropteridin-6(5H)-one]",≤ 100 nM
9,"CC(C)CCN1c2nc(Nc3cc(F)c4[nH]ncc4c3)ncc2N(c2ccc(OC(C)C)c(C#N)c2)C(=O)[C@H]1C [Example 93, 5-[(7R)-2-[(7-fluoro-1H-indazol-5-yl)amino]-7-methyl-8-(3-methylbutyl)-6-oxo-7,8-dihydropteridin-5(6H)-yl]-2-(propan-2-yloxy)benzonitrile]",≤ 100 nM
10,"C[C@@H]1C(=O)N(c2cccc(C#N)c2)c2cnc(Nc3ccc4c(c3)CS(=O)(=O)N4)nc2N1[C@H]1CC[C@H](C)CC1 [compound 250, 3-[(7R)-2-[(2,2-dioxido-1,3-dihydro-2,1-benzothiazol-5-yl)amino]-7-methyl-8-(trans-4-methylcyclohexyl)-6-oxo-7,8-dihydropteridin-5(6H)-yl]benzonitrile]",100 to 1000 nM
11,"CO[C@H]1CC[C@H](N2c3nc(Nc4cnc5[nH]ncc5c4)ncc3N(c3cccc(C#N)c3)C(=O)[C@H]2C)CC1 [compound 231, 3-[(7R)-8-(trans-4-methoxycyclohexyl)-7-methyl-6-oxo-2-(1H-pyrazolo[3,4-b]pyridin-5-ylamino)-7,8-dihydropteridin-5(6H)-yl]benzonitrile]",≤ 100 nM
12,"C[C@@H]1C(=O)N(c2cccnc2)c2cnc(Nc3cnc4[nH]ncc4c3)nc2N1C1CCCCC1 [compound 154, (7R)-8-cyclohexyl-7-methyl-2-(1H-pyrazolo[3,4-b]pyridin-5-ylamino)-5-(pyridin-3-yl)-7,8-dihydropteridin-6(5H)-one]",≤ 100 nM
13,"COc1ccc(N2C(=O)[C@@H](C)N(C3CCOCC3)c3nc(Nc4ccc5[nH]c(=O)oc5c4)ncc32)cc1C#N [compound 197, 2-Methoxy-5-[(7R)-7-methyl-6-oxo-2-[(2-oxo-2,3-dihydro-1,3-benzoxazol-6-yl)amino]-8-(tetrahydro-2H-pyran-4-yl)-7,8-dihydropteridin-5(6H)-yl]benzonitrile]",≤ 100 nM
14,"Cc1ccc(N2C(=O)[C@@H](C)N(C3CCCCC3)c3nc(Nc4ccc5[nH]ncc5c4)ncc32)cc1 [Example 22, (7R)-8-cyclohexyl-2-(1H-indazol-5-ylamino)-7-methyl-5-(4-methylphenyl)-7,8-dihydropteridin-6(5H)-one]",≤ 100 nM
15,"CCOc1ccc(N2C(=O)[C@@H](C)N(C3CCC(F)(F)CC3)c3nc(Nc4ccc5[nH]c(=O)oc5c4)ncc32)cc1C#N [compound 284, 5-[(7R)-8-(4,4-difluorocyclohexyl)-7-methyl-6-oxo-2-[(2-oxo-2,3-dihydro-1,3-benzoxazol-6-yl)amino]-7,8-dihydropteridin-5(6H)-yl]-2-ethoxybenzonitrile]",100 to 1000 nM
16,"COc1ccc(N2C(=O)[C@@H](C)N(C3CCC(=O)CC3)c3nc(Nc4cc(F)c5[nH]ncc5c4)ncc32)cc1OC [compound 308, (7R)-5-(3,4-dimethoxyphenyl)-2-[(7-fluoro-1H-indazol-5-yl)amino]-7-methyl-8-(4-oxocyclohexyl)-7,8-dihydropteridin-6(5H)-one]",≤ 100 nM
17,"CO[C@H]1CC[C@H](N2c3nc(Nc4cc(F)c(O)c(F)c4)ncc3N(c3cccc(C#N)c3)C(=O)[C@H]2C)CC1 [compound 232, 3-[(7R)-2-[(3,5-difluoro-4-hydroxyphenyl)amino]-8-(trans-4-methoxycyclohexyl)-7-methyl-6-oxo-7,8-dihydropteridin-5(6H)-yl]benzonitrile]",≤ 100 nM
18,"CC(C)CCN1c2nc(Nc3ccc4[nH]ncc4c3)ncc2N(c2ccccc2)C(=O)[C@H]1C [Example 16, (7R)-2-(1H-indazol-5-ylamino)-7-methyl-8-(3-methylbutyl)-5-phenyl-7,8-dihydropteridin-6(5H)-one]",≤ 100 nM
19,"C[C@@H]1C(=O)N(c2cccc(C#N)c2)c2cnc(Nc3ccc4[nH]ncc4c3)nc2N1C1CCCC1 [Example 69, 3-[(7R)-8-cyclopentyl-2-(1H-indazol-5-ylamino)-7-methyl-6-oxo-7,8-dihydropteridin-5(6H)-yl]benzonitrile]",≤ 100 nM
20,"CC(C)Oc1ccc(N2C(=O)[C@@H](C)N(C3CCOCC3)c3nc(Nc4cc(F)c5[nH]ncc5c4)ncc32)cc1C#N [compound 196, 5-[(7R)-2-[(7-fluoro-1H-indazol-5-yl)amino]-7-methyl-6-oxo-8-(tetrahydro-2H-pyran-4-yl)-7,8-dihydropteridin-5(6H)-yl]-2-(propan-2-yloxy)benzonitrile]",≤ 100 nM
21,"C[C@@H]1C(=O)N(c2cccc(C#N)c2)c2cnc(Nc3ccc4[nH]c(=O)oc4c3)nc2N1C1CCCCC1 [compound 149, 3-[(7R)-8-cyclohexyl-7-methyl-6-oxo-2-[(2-oxo-2,3-dihydro-1,3-benzoxazol-6-yl)amino]-7,8-dihydropteridin-(6H)-yl]benzonitrile]",≤ 100 nM
22,"COc1ccc(N2C(=O)[C@@H](C)N(C3CCCCC3)c3nc(Nc4cnc5[nH]ncc5c4)ncc32)cc1OC [compound 153, (7R)-8-cyclohexyl-5-(3,4-dimethoxyphenyl)-7-methyl-2-(1H-pyrazolo[3,4-B]pyridin-5-ylamino)-7,8-dihydropteridin-6(5H)-one]",≤ 100 nM
23,"C[C@@H]1C(=O)N(c2ccc(N3CCCC3)c(C#N)c2)c2cnc(Nc3cc(F)c4[nH]ncc4c3)nc2N1C1CCC(C)(C)CC1 [Example 212, 5-[(7R)-8-(4,4-dimethylcyclohexyl)-2-[(7-fluoro-1H-indazol-5-yl)amino]-7-methyl-6-oxo-7,8-dihydropteridin-5(6H)-yl]-2-(pyrrolidin-1-yl)benzonitrile]",≤ 100 nM
24,"Cc1ccc(N2C(=O)[C@@H](C)N(C3CCCCC3)c3nc(Nc4ccc5[nH]ncc5c4)ncc32)cn1 [compound 113, (7R)-8-cyclohexyl-2-(1H-indazol-5-ylamino)-7-methyl-5-(6-methylpyridin-3-yl)-7,8-dihydropteridin-6(5H)-one]",≤ 100 nM
